Legend:
Assay type in all cases: functional
[1] = system: Plutella xylostella; test: Lethal effect on Plutella xylostella (diamondback moth) in fresh cabbage leaves assessed as mortality at 10 ug/insect measured 24 hr after treatment by topical application method
[2] = system: Plutella xylostella; test: Antifeedant effect in Plutella xylostella (diamondback moth) in compound treated fresh cabbage leaves assessed as feeding reduction at 66.4 ug/cm'2 by no-choice leaf disk method
[3] = system: Plutella xylostella; test: Lethal effect on Plutella xylostella (diamondback moth) in fresh cabbage leaves assessed as mortality measured per insect after 48 hr treatment by topical application method
[4] = system: Plutella xylostella; test: Antifeedant effect in Plutella xylostella (diamondback moth) in compound treated fresh cabbage leaves assessed as feeding reduction at 106.2 ug/cm'2 by no-choice leaf disk method
[5] = system: Plutella xylostella; test: Lethal effect on Plutella xylostella (diamondback moth) in fresh cabbage leaves assessed as mortality at 8 to 10 ug/insect measured 48 hr after treatment by topical application method
[6] = system: Callosobruchus chinensis; test: Lethal effect on Callosobruchus chinensis assessed as mortality at 8 ug/insect measured 24 hr after treatment by topical application method
[7] = system: Callosobruchus chinensis; test: Lethal effect on Callosobruchus chinensis assessed as mortality measured per insect after 24 hr treatment by topical application method

## C=C[C@H](OC(C)=O)c1ccc(OC(C)=O)cc1 [1'-ACETOXYCHAVICOL ACETATE]
[1]
  mortality: 83.3%
[2]
  AFI: 88.5%
[3]
  LD50: 4.5 µg
[4]
  AFI: 98.8%
[5]
  mortality: 100%
[6]
  mortality: 95%
[7]
  LD50: 3 µg
